Data taken from article PMC9532703, “A novel small molecule RK-019 inhibits FGFR2-amplification gastric cancer cell proliferation and induces apoptosis in vitro and in vivo” (Frontiers in Pharmacology, 2022).

Legend:
Experiment in all cases: Kinase selectivity panel
Assay type in all cases: biochemical
Settings in all cases: read-out: Inhibition(%) @ 1 µM RK-019
AMPKα1(h) = biological target: T1, AMPKα1(h) (Homo sapiens, UniProt Q13131)
T1 construct: purchased Eurofins Discovery Services (KinaseProfiler)
How it was run: (§1)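 Selectivity profiling used one concentration (1 µM) in an ATP-site competition binding assay over 422 recombinant human kinases; data given as inhibition ratio.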

ASK1(h) = biological target: T2, ASK1(h) (Homo sapiens, UniProt Q99683)
T2 construct: purchased Eurofins Discovery Services (KinaseProfiler)
How it was run: as §1

Abl (M351T)(h) = biological target: T3, Abl (M351T)(h) (Homo sapiens, UniProt P00519, M351T)
T3 construct: purchased Eurofins Discovery Services (KinaseProfiler)
How it was run: as §1

Abl (Q252H) (h) = biological target: T4, Abl (Q252H) (h) (Homo sapiens, UniProt P00519, Q252H)
T4 construct: purchased Eurofins Discovery Services (KinaseProfiler)
How it was run: as §1

BTK(h) = biological target: T5, BTK(h) (Homo sapiens, UniProt Q06187)
T5 construct: purchased Eurofins Discovery Services (KinaseProfiler)
How it was run: as §1

Blk(h) = biological target: T6, Blk(h) (Homo sapiens, UniProt P51451)
T6 construct: purchased Eurofins Discovery Services (KinaseProfiler)
How it was run: as §1

CK1γ2(h) = biological target: T7, CK1γ2(h) (Homo sapiens, UniProt P78368)
T7 construct: purchased Eurofins Discovery Services (KinaseProfiler)
How it was run: as §1

CRIK(h) = biological target: T8, CRIK(h) (Homo sapiens, UniProt O14578)
T8 construct: purchased Eurofins Discovery Services (KinaseProfiler)
How it was run: as §1

DYRK2(h) = biological target: T9, DYRK2(h) (Homo sapiens, UniProt Q92630)
T9 construct: purchased Eurofins Discovery Services (KinaseProfiler)
How it was run: as §1

FGFR1(V561M)(h) = biological target: T10, FGFR1(V561M)(h) (Homo sapiens, UniProt P11362, V561M)
T10 construct: purchased Eurofins Discovery Services (KinaseProfiler)
T10 sequence (P11362 22-822 V561M): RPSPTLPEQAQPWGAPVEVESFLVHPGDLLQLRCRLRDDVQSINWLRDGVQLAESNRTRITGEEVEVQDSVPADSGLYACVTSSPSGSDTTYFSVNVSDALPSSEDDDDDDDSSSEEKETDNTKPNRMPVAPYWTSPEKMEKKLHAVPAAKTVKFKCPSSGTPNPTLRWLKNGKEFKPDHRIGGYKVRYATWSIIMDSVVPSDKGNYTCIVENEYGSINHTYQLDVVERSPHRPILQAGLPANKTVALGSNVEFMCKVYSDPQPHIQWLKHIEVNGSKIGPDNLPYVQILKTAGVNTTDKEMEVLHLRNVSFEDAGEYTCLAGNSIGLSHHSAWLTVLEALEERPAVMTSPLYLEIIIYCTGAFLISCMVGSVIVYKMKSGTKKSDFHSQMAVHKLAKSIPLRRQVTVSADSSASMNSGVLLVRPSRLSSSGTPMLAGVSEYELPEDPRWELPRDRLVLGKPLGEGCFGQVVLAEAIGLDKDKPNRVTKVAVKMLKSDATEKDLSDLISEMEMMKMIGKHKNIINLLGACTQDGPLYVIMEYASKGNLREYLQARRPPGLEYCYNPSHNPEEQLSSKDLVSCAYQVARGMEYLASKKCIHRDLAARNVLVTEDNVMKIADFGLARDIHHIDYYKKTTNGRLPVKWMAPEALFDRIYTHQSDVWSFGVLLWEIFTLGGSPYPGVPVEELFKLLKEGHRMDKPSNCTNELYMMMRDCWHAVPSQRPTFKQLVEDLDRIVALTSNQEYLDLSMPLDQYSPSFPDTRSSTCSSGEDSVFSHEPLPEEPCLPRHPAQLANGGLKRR
How it was run: as §1

FGFR2(N549H)(h) = biological target: T11, FGFR2(N549H)(h) (Homo sapiens, UniProt P21802, N549H)
T11 construct: purchased Eurofins Discovery Services (KinaseProfiler)
How it was run: as §1

GCK(h) = biological target: T12, GCK(h) (Homo sapiens, UniProt Q12851)
T12 construct: purchased Eurofins Discovery Services (KinaseProfiler)
How it was run: as §1

HPK1(h) = biological target: T13, HPK1(h) (Homo sapiens, UniProt Q92918)
T13 construct: purchased Eurofins Discovery Services (KinaseProfiler)
How it was run: as §1

Hck(h) = biological target: T14, Hck(h) (Homo sapiens, UniProt P08631)
T14 construct: purchased Eurofins Discovery Services (KinaseProfiler)
How it was run: as §1

Lck(h) activated = biological target: T15, Lck(h) activated (Homo sapiens, UniProt P06239)
T15 construct: purchased Eurofins Discovery Services (KinaseProfiler)
How it was run: as §1

MOK(h) = biological target: T16, MOK(h) (Homo sapiens, UniProt Q9UQ07)
T16 construct: purchased Eurofins Discovery Services (KinaseProfiler)
How it was run: as §1

MSK2(h) = biological target: T17, MSK2(h) (Homo sapiens, UniProt O75676)
T17 construct: purchased Eurofins Discovery Services (KinaseProfiler)
How it was run: as §1

Met(h) = biological target: T18, Met(h) (Homo sapiens, UniProt P08581)
T18 construct: purchased Eurofins Discovery Services (KinaseProfiler)
How it was run: as §1

NEK3(h) = biological target: T19, NEK3(h) (Homo sapiens, UniProt P51956)
T19 construct: purchased Eurofins Discovery Services (KinaseProfiler)
How it was run: as §1

PAR-1Bα(h) = biological target: T20, PAR-1Bα(h) (Homo sapiens, UniProt Q7KZI7)
T20 construct: purchased Eurofins Discovery Services (KinaseProfiler)
How it was run: as §1

[1] = biological target: T21, PI3 Kinase (p110a/p85a)(m) (Mus musculus, UniProt P42337)
T21 construct: purchased Eurofins Discovery Services (KinaseProfiler)

[2] = biological target: T22, PI3 Kinase (p110b/p85a)(m) (Mus musculus, UniProt Q8BTI9)
T22 construct: purchased Eurofins Discovery Services (KinaseProfiler)

PIP5K1g(h) = biological target: T23, PIP5K1g(h) (Homo sapiens, UniProt O60331)
T23 construct: purchased Eurofins Discovery Services (KinaseProfiler)
How it was run: as §1

PKCε(h) = biological target: T24, PKCε(h) (Homo sapiens, UniProt Q02156)
T24 construct: purchased Eurofins Discovery Services (KinaseProfiler)
How it was run: as §1

PKCμ(h) = biological target: T25, PKCμ(h) (Homo sapiens, UniProt Q15139)
T25 construct: purchased Eurofins Discovery Services (KinaseProfiler)
How it was run: as §1

PKD3(h) = biological target: T26, PKD3(h) (Homo sapiens, UniProt O94806)
T26 construct: purchased Eurofins Discovery Services (KinaseProfiler)
T26 sequence (O94806 whole entry): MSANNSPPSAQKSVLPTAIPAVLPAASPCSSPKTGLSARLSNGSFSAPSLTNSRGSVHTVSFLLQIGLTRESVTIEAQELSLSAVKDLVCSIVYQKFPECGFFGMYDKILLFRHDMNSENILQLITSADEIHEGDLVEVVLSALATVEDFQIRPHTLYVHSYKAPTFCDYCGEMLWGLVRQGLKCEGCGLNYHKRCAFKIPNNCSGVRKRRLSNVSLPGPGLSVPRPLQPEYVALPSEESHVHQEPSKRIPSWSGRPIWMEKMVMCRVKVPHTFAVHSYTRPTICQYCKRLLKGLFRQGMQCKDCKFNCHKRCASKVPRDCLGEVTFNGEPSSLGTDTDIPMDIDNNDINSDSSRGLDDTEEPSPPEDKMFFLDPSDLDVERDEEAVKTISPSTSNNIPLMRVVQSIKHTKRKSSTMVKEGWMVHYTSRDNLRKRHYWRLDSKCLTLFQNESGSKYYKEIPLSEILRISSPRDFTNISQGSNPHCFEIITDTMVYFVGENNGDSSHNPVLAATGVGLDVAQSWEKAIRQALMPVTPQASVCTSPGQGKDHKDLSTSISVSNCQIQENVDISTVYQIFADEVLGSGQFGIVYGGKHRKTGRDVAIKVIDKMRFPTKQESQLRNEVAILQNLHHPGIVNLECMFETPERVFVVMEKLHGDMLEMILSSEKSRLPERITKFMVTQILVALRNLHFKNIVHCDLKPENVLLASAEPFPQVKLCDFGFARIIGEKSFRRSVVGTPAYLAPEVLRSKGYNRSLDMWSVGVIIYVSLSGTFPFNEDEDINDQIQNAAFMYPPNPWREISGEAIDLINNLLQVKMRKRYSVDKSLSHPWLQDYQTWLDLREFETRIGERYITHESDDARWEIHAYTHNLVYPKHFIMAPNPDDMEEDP
How it was run: as §1

SNRK(h) = biological target: T27, SNRK(h) (Homo sapiens, UniProt Q9NRH2)
T27 construct: purchased Eurofins Discovery Services (KinaseProfiler)
How it was run: as §1

TAO1(h) = biological target: T28, TAO1(h) (Homo sapiens, UniProt Q7L7X3)
T28 construct: purchased Eurofins Discovery Services (KinaseProfiler)
How it was run: as §1

TBK1(h) = biological target: T29, TBK1(h) (Homo sapiens, UniProt Q9UHD2)
T29 construct: purchased Eurofins Discovery Services (KinaseProfiler)
T29 sequence (Q9UHD2 whole entry): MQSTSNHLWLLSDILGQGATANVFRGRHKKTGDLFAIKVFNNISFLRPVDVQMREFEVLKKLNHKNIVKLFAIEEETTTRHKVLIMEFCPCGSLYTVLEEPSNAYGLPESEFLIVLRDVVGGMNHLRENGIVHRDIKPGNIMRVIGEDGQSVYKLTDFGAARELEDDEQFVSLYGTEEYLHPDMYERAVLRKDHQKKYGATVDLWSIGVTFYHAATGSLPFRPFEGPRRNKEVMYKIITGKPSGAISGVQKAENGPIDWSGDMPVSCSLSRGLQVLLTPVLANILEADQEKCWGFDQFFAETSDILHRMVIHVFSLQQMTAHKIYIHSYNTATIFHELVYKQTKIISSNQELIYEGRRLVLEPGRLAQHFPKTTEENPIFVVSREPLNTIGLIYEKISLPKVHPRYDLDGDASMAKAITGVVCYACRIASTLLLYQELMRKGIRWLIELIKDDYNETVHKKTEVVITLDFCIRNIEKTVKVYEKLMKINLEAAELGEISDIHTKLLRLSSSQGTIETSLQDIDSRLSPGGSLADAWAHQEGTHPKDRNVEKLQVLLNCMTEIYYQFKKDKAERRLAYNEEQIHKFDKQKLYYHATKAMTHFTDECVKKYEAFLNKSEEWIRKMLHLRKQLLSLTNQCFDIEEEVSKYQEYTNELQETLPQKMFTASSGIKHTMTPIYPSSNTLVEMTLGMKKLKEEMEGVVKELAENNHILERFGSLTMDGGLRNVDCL
How it was run: as §1

TSSK1(h) = biological target: T30, TSSK1(h) (Homo sapiens, UniProt Q9BXA7)
T30 construct: purchased Eurofins Discovery Services (KinaseProfiler)
T30 sequence (Q9BXA7 whole entry): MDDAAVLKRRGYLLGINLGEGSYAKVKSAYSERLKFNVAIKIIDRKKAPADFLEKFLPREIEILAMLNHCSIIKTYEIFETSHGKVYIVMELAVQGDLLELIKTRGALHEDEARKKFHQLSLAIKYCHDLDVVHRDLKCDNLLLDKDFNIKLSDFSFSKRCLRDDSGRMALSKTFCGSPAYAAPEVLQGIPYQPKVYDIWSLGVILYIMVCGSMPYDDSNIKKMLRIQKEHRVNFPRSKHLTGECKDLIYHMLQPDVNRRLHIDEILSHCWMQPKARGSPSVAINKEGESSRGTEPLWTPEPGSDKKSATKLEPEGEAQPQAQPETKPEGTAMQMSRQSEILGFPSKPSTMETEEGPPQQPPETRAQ
How it was run: as §1

TTBK2(h) = biological target: T31, TTBK2(h) (Homo sapiens, UniProt Q6IQ55)
T31 construct: purchased Eurofins Discovery Services (KinaseProfiler)
T31 sequence (Q6IQ55 whole entry): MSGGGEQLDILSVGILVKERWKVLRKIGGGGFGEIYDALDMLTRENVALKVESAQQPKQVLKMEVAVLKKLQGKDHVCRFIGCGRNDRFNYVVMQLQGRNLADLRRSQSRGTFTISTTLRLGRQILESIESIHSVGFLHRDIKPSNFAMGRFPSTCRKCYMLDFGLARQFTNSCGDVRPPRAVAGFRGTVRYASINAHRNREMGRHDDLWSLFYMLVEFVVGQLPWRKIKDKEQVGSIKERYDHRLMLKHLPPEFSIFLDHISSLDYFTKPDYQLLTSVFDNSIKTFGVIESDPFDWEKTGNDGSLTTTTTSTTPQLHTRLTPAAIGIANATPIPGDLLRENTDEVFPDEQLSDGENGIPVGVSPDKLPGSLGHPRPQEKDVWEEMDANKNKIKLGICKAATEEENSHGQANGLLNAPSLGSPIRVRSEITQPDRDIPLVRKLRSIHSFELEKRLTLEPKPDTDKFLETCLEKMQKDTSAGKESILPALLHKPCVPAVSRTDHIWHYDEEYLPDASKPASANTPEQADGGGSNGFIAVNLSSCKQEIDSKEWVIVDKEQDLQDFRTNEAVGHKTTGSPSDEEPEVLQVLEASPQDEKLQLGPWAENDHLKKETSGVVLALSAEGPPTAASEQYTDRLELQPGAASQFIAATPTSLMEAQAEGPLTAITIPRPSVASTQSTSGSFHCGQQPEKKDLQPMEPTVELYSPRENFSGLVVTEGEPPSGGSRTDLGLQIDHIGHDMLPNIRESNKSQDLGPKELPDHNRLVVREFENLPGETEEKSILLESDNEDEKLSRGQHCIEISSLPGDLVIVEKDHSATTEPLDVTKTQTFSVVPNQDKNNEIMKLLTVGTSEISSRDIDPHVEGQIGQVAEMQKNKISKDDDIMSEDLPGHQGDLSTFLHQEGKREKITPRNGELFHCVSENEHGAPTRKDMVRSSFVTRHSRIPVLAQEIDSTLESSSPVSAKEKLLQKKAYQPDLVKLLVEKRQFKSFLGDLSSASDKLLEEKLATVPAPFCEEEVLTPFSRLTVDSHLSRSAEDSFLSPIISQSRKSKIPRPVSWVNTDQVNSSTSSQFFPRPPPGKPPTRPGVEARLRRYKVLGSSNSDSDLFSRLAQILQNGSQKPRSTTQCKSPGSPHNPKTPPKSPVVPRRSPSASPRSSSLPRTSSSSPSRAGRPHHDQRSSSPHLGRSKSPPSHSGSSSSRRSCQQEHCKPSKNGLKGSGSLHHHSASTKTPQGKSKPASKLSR
How it was run: as §1

TTK(h) = biological target: T32, TTK(h) (Homo sapiens, UniProt P33981)
T32 construct: purchased Eurofins Discovery Services (KinaseProfiler)
T32 sequence (P33981 whole entry): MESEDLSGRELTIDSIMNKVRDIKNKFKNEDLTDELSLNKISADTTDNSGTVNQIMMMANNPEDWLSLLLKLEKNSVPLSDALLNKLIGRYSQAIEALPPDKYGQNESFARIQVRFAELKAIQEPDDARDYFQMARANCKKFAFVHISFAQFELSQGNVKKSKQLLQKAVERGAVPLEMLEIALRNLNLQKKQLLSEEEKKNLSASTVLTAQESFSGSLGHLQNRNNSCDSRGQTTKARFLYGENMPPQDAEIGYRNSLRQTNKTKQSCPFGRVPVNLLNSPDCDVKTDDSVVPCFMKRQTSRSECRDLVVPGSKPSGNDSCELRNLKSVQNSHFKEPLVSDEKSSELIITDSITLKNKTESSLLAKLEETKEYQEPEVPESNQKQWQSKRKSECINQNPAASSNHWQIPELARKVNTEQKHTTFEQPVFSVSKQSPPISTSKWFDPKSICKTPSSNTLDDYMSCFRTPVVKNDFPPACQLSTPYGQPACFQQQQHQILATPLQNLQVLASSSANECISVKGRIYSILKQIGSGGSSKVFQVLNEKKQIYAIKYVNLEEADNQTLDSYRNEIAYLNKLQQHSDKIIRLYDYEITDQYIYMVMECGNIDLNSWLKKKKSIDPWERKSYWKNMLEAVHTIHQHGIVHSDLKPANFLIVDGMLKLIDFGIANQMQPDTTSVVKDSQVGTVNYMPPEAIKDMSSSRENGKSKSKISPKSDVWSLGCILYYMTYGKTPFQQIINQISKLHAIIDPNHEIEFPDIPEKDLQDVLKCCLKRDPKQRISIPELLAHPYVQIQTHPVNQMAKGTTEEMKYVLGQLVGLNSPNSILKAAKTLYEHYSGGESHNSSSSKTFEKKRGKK
How it was run: as §1

Tec(h) activated = biological target: T33, Tec(h) activated (Homo sapiens, UniProt P42680)
T33 construct: purchased Eurofins Discovery Services (KinaseProfiler)
How it was run: as §1

ULK3(h) = biological target: T34, ULK3(h) (Homo sapiens, UniProt Q6PHR2)
T34 construct: purchased Eurofins Discovery Services (KinaseProfiler)
How it was run: as §1

VRK1(h) = biological target: T35, VRK1(h) (Homo sapiens, UniProt Q99986)
T35 construct: purchased Eurofins Discovery Services (KinaseProfiler)
How it was run: as §1

ZAP-70(h) = biological target: T36, ZAP-70(h) (Homo sapiens, UniProt P43403)
T36 construct: purchased Eurofins Discovery Services (KinaseProfiler)
How it was run: as §1

cKit(V560G)(h) = biological target: T37, cKit(V560G)(h) (Homo sapiens, UniProt P10721, V560G)
T37 construct: purchased Eurofins Discovery Services (KinaseProfiler)
How it was run: as §1

Compound `COc1cc(OC)cc(N(CCN[C@H](C)CO)c2ccc3ncc(-c4cnn(C)c4)c(=O)n3c2)c1` [RK-019, (R)-7-((3,5-dimethoxyphenyl) (2-((1-hydroxypropan-2-yl)amino)ethyl)amino)-3-(1-methyl-1H-pyrazol-4-yl)-4H-pyrido [1,2-a]pyrimidin-4-one] has an activity at 1 µM (AMPKα1(h)) of 107%, an activity at 1 µM (ASK1(h)) of 118% and an activity at 1 µM (Abl (M351T)(h)) of 34%. For the same compound, the activity at 1 µM (Abl (Q252H) (h)) was 46%, the activity at 1 µM (BTK(h)) was 72% and the activity at 1 µM (Blk(h)) was 70%. It also gave an activity at 1 µM (CK1γ2(h)) of 97%, an activity at 1 µM (CRIK(h)) of 117% and an activity at 1 µM (DYRK2(h)) of 94%. For the same compound, the activity at 1 µM (FGFR1(V561M)(h)) was 70%, the activity at 1 µM (FGFR2(N549H)(h)) was -1% and the activity at 1 µM (GCK(h)) was 98%. For the same compound, the activity at 1 µM (HPK1(h)) was 95%, the activity at 1 µM (Hck(h)) was 27% and the activity at 1 µM (Lck(h) activated) was 36%. It also gave an activity at 1 µM (MOK(h)) of 97%, an activity at 1 µM (MSK2(h)) of 101% and an activity at 1 µM (Met(h)) of 97%. It also gave an activity at 1 µM (NEK3(h)) of 87%, an activity at 1 µM (PAR-1Bα(h)) of 92% and an activity at 1 µM [1] of 101%. The activity at 1 µM [2] was 98%, the activity at 1 µM (PIP5K1g(h)) was 97% and the activity at 1 µM (PKCε(h)) was 88%. For the same compound, the activity at 1 µM (PKCμ(h)) was 107%, the activity at 1 µM (PKD3(h)) was 99% and the activity at 1 µM (SNRK(h)) was 92%. For the same compound, the activity at 1 µM (TAO1(h)) was 115%, the activity at 1 µM (TBK1(h)) was 101% and the activity at 1 µM (TSSK1(h)) was 109%. It also gave an activity at 1 µM (TTBK2(h)) of 82%, an activity at 1 µM (TTK(h)) of 98% and an activity at 1 µM (Tec(h) activated) of 96%. For the same compound, the activity at 1 µM (ULK3(h)) was 91%, the activity at 1 µM (VRK1(h)) was 98% and the activity at 1 µM (ZAP-70(h)) was 119%. The activity at 1 µM (cKit(V560G)(h)) was 14%.
